In one experiment the test system is melanocytes. The settings on record: cited from earlier work.
Experiment [1] relates to full-thickness wounds, Red Duroc pig. Kind of experiment: Red Duroc pig wound scar study: scar area and wound area. The arrangement: scar area reduction / scar area smaller than control wounds / wound area smaller than control (less swollen) / wound area larger than control (less contracted): concentration or dose not given beside the values. It is filed as in vivo. Here is the method: A porcine wound scar study was conducted in the Red Duroc pig. 4 rows of 5 (2×2 cm) full-thickness wounds were created, either side of the spine, on the shaved backs of 10 Red Durocs (FIGS. 1, 4). […] Two wounds per animal were biopsied (6 mm punch) at 7, 14, 21, 28 and 42 days post wounding. The remaining 10 wound scars per animal were photographed and harvested at day 56 post-wounding, giving a total of 5 wounds per position, 50 wounds in total for each group. The scar closest to the average scar area, at each position, for both control and sal-treated wounds are presented (FIG. 5b). […] Indeed, by day 28 and 42 post-wounding the scar area of the sal-treated wounds was already 34.1% and 37.7% smaller than control wounds (FIG. 6a; ***P<0.001). Wound area was also measured in early time points.

Experiment [2] has the same test system. Kind of experiment: Red Duroc pig wound scar study: scar scale scores. The experiment is classed as in vivo. An excerpt:
Anatomically and physiologically, porcine skin is very similar to human skin [19]. Wounds in small mammal skin, which is untethered, heal primarily by wound contraction, whereas porcine and human skin wounds close primarily by wound re-epithelialisation. The Red Duroc pig is well established as a reproducible model of fibro proliferative and hypertrophic scar formation. Similar to human hypertrophic scars, Red Duroc pigs heal wounds with an excessive amount of collagen deposition and increased wound contraction. In addition, the wounds heal with hyperpigmentation at the wound margins creating hyperpigmented scars and the scars are raised, similar to human scars. […] A porcine wound scar study was conducted in the Red Duroc pig. 4 rows of 5 (2×2 cm) full-thickness wounds were created, either side of the spine, on the shaved backs of 10 Red Durocs (FIGS. 1, 4). […] Two wounds per animal were biopsied (6 mm punch) at 7, 14, 21, 28 and 42 days post wounding. The remaining 10 wound scars per animal were photographed and harvested at day 56 post-wounding, giving a total of 5 wounds per position, 50 wounds in total for each group. A number of scales have been developed to score the severity of human scars. The Vancouver scar scale (VSS), the Manchester scar scale (MSS) and the patient and observer scar assessment scale (POSAS). We developed our own scale to score the severity of the Red Duroc scars based on the VSS [7] and the MSS [8]. The patient and observer scar assessment scale (POSAS) could not be used as it requires patient involvement. The VSS measures four parameters: pigmentation, vascularity, pliability and height, while the MSS measures colour, contour, distortion and texture. Our scar scale was developed to score a number of scar characteristics including: pigmentation, colour match with surrounding tissue, skin sheen, pliability, texture and height contour.

Another experiment relates to βARs. The arrangement: dose or concentration left out as unconfirmed. The settings on record: cited from earlier work.
The subject of the next experiment is melanoma cells. To be noted: cited from earlier work.
Another experiment has as its system age spots. The settings on record: added topically, Chinese females with age spots; cited from earlier work.
[3] abbreviates: 5 mM in Granugel, 500 μl per wound daily, day 56, vs control.

Where two headings read alike, the source gives them in different places.

For `CNCC(O)c1ccc(O)c(O)c1` (stereo not drawn) [Adrenaline, adrenaline], the results for the “melanin production / melanogenesis in melanocytes” value in the experiment with melanocytes and with melanocytes (listed as Epinephrine) were “increased melanin production” and “increases melanin synthesis”, respectively.

Turning to `NC[C@H](O)c1ccc(O)c(O)c1` [noradrenaline], the “melanin production / melanogenesis in melanocytes” value in the experiment on melanocytes is given as “no effect”.

Regarding `CC(C)(C)NCC(O)c1ccc(O)c(CO)c1` (stereo not drawn) [salbutamol], in experiment [1] (56 days post wounding, vs control), the scar area reduction was 47.1%. The “wound area smaller than control (less swollen)” value in experiment [1] (after 7 days) is recorded as 11%. For the same compound, the “wound area larger than control (less contracted)” value in experiment [1] (after 14 days) is listed as 23%. Moreover, the “wound area vs control wounds” value in experiment [1] (by 28 days) is “slightly smaller”. Further, the “scar area smaller than control wounds” value in experiment [1] (day 28 post-wounding) was determined as 34.1%. The “scar area smaller than control wounds” value in experiment [1] (day 42 post-wounding) amounted to 37.7%. In addition, the “re-epithelialisation rate vs control wounds” value in experiment [1] (early time points) was “No significant difference”. For the same compound, in experiment [2] (setting [3]), the “improvement of colour match score” value is given as 44%, the “improvement of height contour score” value worked out at 34%, the “improvement of pigmentation score” value was 48% and the “improvement of pliability score” value was 22%. Also, in experiment [2] (setting [3]), the “improvement of sheen score” value was 53% and the “improvement of texture score” value was 22%. Moreover, the “scar appearance vs control scars” value in experiment [2] (day 56 post-wounding, P<0.0001) was “less hyper-pigmented”. Further, the “activation of βARs” value with βARs was “activate all βARs”. In addition, in the experiment on melanocytes (melanocytes, in association with increased melanogenesis), the cAMP levels entry is given as “enhances cAMP levels”.

`C=CCCCCCCCCC(=O)N[C@@H](Cc1ccccc1)C(=O)O` [undecylenoyl phenylalanine]: the melanin production entry with melanoma cells is “suppressed melanin production”. The skin lightening entry in the experiment on age spots is “skin lightening effect”.
